From patent US20090088380A1, “GHRH ANALOGS AND THERAPEUTIC USES THEREOF” (priority 2007, published 2009)
Where “and” joins values, the source holds several entries; their conditions need not be identical. Equal values may be shown once. Non-standard residues stand in square brackets, D forms with d. Residues, ends and D or L forms follow the SMILES beside them.

Tests used:
protein turnover = assay: Phase II, malnourished CKD subjects, 1 mg sc twice daily 28 days: 13C-leucine kinetics (protein turnover); type: in vivo, human; conditions: for Leucine oxidation: adjusted mean difference (analog-placebo): Day 28; for Leucine flux: mean (SD): normalised with body weight
Experimental: This was a randomized, double-blind, placebo-controlled, parallel-group, multi-centre study of the GHRH(1-29)NH2 synthetic analog in malnourished subjects with CKD. Twenty-six subjects were required to complete the study.
All study subjects were randomised in equal numbers to receive active GHRH(1-29)NH2 synthetic analog or an equivalent volume of placebo, by sc injection, twice daily for 28 days.
Vials of investigational product contained 1.4 mg of the GHRH(1-29)NH2 synthetic analog. This was reconstituted with 0.7 mL of water for injection and 0.5 mL of the resultant solution (1.0 mg of active substance) was administered, i.e. approximately 15 μg/kg. The diluent, water for injections, was obtained from commercial stock and labelled accordingly.
Leucine kinetics was measured on Day 0 and Day 29 by a primed-constant infusion technique during substrate and isotopic steady state. The priming dose consisted of 4.0 μmol/kg of L[1−^13C] leucine and 0.11 mg/kg of NaH^13CO3 and a sustaining infusion rate of L[1−^13C] leucine of 4.0 μmol/kg/h for 4 hours. The isotopes were purchased directly from Cambridge Isotope Laboratories.
A 1 mL sample of venous blood was taken before administration of the dose of isotope and at 180, 195, 210, 225 and 240 minutes after the start of infusion.
Breath samples were provided by blowing through a straw into Exetainer® tubes (evacuated 139 B blue tops). Breath samples were collected before the dose of isotope and at 180, 195, 210, 225 and 240 minutes after the start of infusion. Duplicate samples were collected. One sample was sent for analysis; the other was retained in case of loss or breakage. All retained samples were destroyed once the database was locked.

[1] = system: malnourished subjects with CKD; assay: Phase II CKD: abnormal findings on physical examination; type: in vivo, human; conditions: safety analysis set
Description: There were no body systems in which there was a trend towards change in physical examination. Any physical examination findings after the screening visit were reported as AEs.

[2] = ITT, Baseline, listed as GHRH(1-29)NH2 synthetic analog
[3] = ITT, listed as GHRH(1-29)NH2 synthetic analog

CC[C@H](C)[C@H](NC(=O)[C@H](C)NC(=O)[C@H](CC(=O)O)NC(=O)[C@@H](C)NC(=O)[C@@H](N)Cc1ccc(O)cc1)C(=O)N[C@@H](Cc1ccccc1)C(=O)N[C@H](C(=O)N[C@@H](CC(N)=O)C(=O)N[C@@H](CO)C(=O)N[C@H](Cc1ccc(O)cc1)C(=O)N[C@@H](CCCNC(=N)N)C(=O)N[C@@H](CCCCN)C(=O)N[C@H](C(=O)N[C@@H](CC(C)C)C(=O)N[C@H](C)C(=O)N[C@@H](CCC(N)=O)C(=O)N[C@@H](CC(C)C)C(=O)N[C@@H](CO)C(=O)N[C@@H](C)C(=O)N[C@@H](CCCNC(=N)N)C(=O)N[C@@H](CCCCN)C(=O)N[C@@H](CCCCN)C(=O)N[C@@H](CC(C)C)C(=O)N[C@@H](CCC(N)=O)C(=O)N[C@@H](CC(=O)O)C(=O)N[C@H](C(=O)N[C@@H](CCSC)C(=O)N[C@@H](CO)C(=O)N[C@@H](CCCNC(=N)N)C(N)=O)[C@@H](C)CC)C(C)C)[C@@H](C)O [GHRH analog #5, [D-Ala^2, D-Tyr^10, D-Ala^15, Lys^22] hGHRH(1-29)-NH2] (H-Y[dA]DAIFTNS[dY]RKVL[dA]QLSARKKLQDIMSR-NH2) was tested, and the “Leucine flux: mean (SD) change from baseline to Day 28” value (protein turnover; ITT) was 1.15 (30.09) μmol/kg · hr, the “Leucine flux: median change from baseline to Day 28” value (protein turnover; ITT) was -0.4 µmol/kg/h and the “Leucine oxidation: mean (SD) change from baseline to Day 28” value (“Leucine oxidation: mean (SD) change” for short) (protein turnover; ITT) was 2.38 (5.66) μmol/kg · hr. The “Leucine oxidation: median change from baseline to Day 28” value (protein turnover; ITT) was 2.3 µmol/kg/h, the “Oxidation of flux: mean (SD) change from baseline to Day 28” value (protein turnover; ITT) was 2.64 (6.26) % and the “Oxidation of flux: median change from baseline to Day 28” value (protein turnover; ITT) was 3.8%. The “Protein breakdown: mean (SD) change from baseline to Day 28” value (protein turnover; ITT) was 1.16 (30.11) μmol/kg · hr, the “Protein breakdown: median change from baseline to Day 28” value (protein turnover; ITT) was -0.4 µmol/kg/h and the “Protein synthesis of flux: mean (SD) change from baseline to Day 28” value (protein turnover; ITT) was −2.64 (6.26) %. The “Protein synthesis of flux: median change from baseline to Day 28” value (protein turnover; ITT) was −3.8%, the “Protein synthesis: mean (SD) change from baseline to Day 28” value (protein turnover; ITT) was −1.22 (30.75) μmol/kg · hr and the “Protein synthesis: median change from baseline to Day 28” value (protein turnover; ITT) was -4.6 µmol/kg/h. The “Leucine flux: median” value (protein turnover; ITT, Baseline) was 98.3 µmol/kg/h, the “Leucine oxidation: mean (SD)” value (protein turnover; ITT, Baseline) was 7.74 μmol/kg · hr and 7.74 (4.51) μmol/kg · hr and the “Leucine oxidation: median” value (protein turnover; ITT, Baseline) was 5.8 µmol/kg/h. For the same compound, the “Oxidation of flux: mean (SD)” value (protein turnover; ITT, Baseline) was 7.61 (4.19) %, the “Oxidation of flux: median” value (protein turnover; ITT, Baseline) was 6.9% and the “Protein breakdown: mean (SD)” value (protein turnover; ITT, Baseline) was 97.45 (21.53) μmol/kg · hr. For the same compound, the “Protein breakdown: median” value (protein turnover; ITT, Baseline) was 94.2 µmol/kg/h, the “Protein synthesis of flux: mean (SD)” value (protein turnover; ITT, Baseline) was 92.39 (4.19) % and the “Protein synthesis of flux: median” value (protein turnover; ITT, Baseline) was 93.1%. For the same compound, the “Protein synthesis: mean (SD)” value (protein turnover; ITT, Baseline) was 93.71 (20.38) μmol/kg · hr, the “Protein synthesis: median” value (protein turnover; ITT, Baseline) was 88.9 µmol/kg/h and the “Leucine oxidation: mean (SD)” value (protein turnover; [2]) was 7.74 µmol/kg/h. For the same compound, the “Protein breakdown: mean (SD)” value (protein turnover; [2]) was 97.45 µmol/kg/h, the “Protein synthesis: mean (SD)” value (protein turnover; [2]) was 93.71 µmol/kg/h and the “Leucine oxidation: adjusted mean difference (analog-placebo)” value (protein turnover; ITT) was 1.1 μmol/kg · hr. The “Leucine flux: mean (SD) change from baseline to Day 28” value (protein turnover; [3]) was 1.15 µmol/kg/h, the “Leucine oxidation: mean (SD) change” value (protein turnover; [3]) was 2.38 µmol/kg/h and the “Protein breakdown: mean (SD) change from baseline to Day 28” value (protein turnover; [3]) was 1.16 µmol/kg/h. For the same compound, the Protein synthesis of flux: median change from baseline to Day 28 (protein turnover; [3]) was -3.8%, the Protein synthesis: mean (SD) change from baseline to Day 28 (protein turnover; [3]) was -1.22 µmol/kg/h and the “Leucine flux: mean (SD)” value (protein turnover; ITT, Baseline) was 101.46 (21.54) μmol/kg · hr. For the same compound, the “Leucine flux: mean (SD)” value (protein turnover; [2]) was 101.46 µmol/kg/h, the “Leucine flux: adjusted mean difference” value (protein turnover; ITT, vs placebo) was 7.5 µmol/kg/h and the “Protein breakdown: adjusted mean difference” value (protein turnover; ITT, vs placebo) was 7.5 µmol/kg/h. The “Protein synthesis: adjusted mean difference” value (protein turnover; ITT, vs placebo) was 6.9 µmol/kg/h, the “Oxidation of flux: adjusted mean difference” value (protein turnover; ITT, vs placebo, ANCOVA assuming log-normal distribution) was 1.48% and the “Leucine oxidation: mean (SD) change” value (protein turnover; PP (Leucine Kinetic)) was 1.90 (6.24) μmol/kg · hr. The “Leucine oxidation: median change from baseline to Day 28” value (protein turnover; PP (Leucine Kinetic)) was 2.3 µmol/kg/h, the “Leucine oxidation: mean (SD)” value (protein turnover; PP (Leucine Kinetic), Baseline) was 7.81 (5.42) μmol/kg · hr and the “Leucine oxidation: median” value (protein turnover; PP (Leucine Kinetic), Baseline) was 5.6 µmol/kg/h. For the same compound, the “Leucine oxidation: adjusted mean difference (analog-placebo)” value (protein turnover; PP (Leucine Kinetic)) was 3.3 μmol/kg · hr, the “Subjects with abnormal findings on physical examination: Cardiovascular (%)” value ([1]; Baseline) was “(46.2%)” and the “Subjects with abnormal findings on physical examination: Central nervous system (%)” value ([1]; Baseline) was “(0.0%)”. The “Subjects with abnormal findings on physical examination: Ear (%)” value ([1]; Baseline) was “(15.4%)”, the “Subjects with abnormal findings on physical examination: Gastrointestinal (%)” value ([1]; Baseline) was “(30.8%)” and the “Subjects with abnormal findings on physical examination: Genitourinary (%)” value ([1]; Baseline) was “(23.1%)”. For the same compound, the “Subjects with abnormal findings on physical examination: Musculoskeletal (%)” value ([1]; Baseline) was “(53.8%)”, the “Subjects with abnormal findings on physical examination: Nose and throat (%)” value ([1]; Baseline) was “(38.5%)” and the “Subjects with abnormal findings on physical examination: Other (%)” value ([1]; Baseline) was “(23.1%)”. For the same compound, the “Subjects with abnormal findings on physical examination: Respiratory (%)” value ([1]; Baseline) was “(0.0%)”, the “Subjects with abnormal findings on physical examination: Skin (%)” value ([1]; Baseline) was “(69.2%)” and the “Subjects with abnormal findings on physical examination: Cardiovascular (%)” value ([1]; Day 28) was “(25.0%)”. For the same compound, the “Subjects with abnormal findings on physical examination: Central nervous system (%)” value ([1]; Day 28) was “(0.0%)”, the “Subjects with abnormal findings on physical examination: Ear (%)” value ([1]; Day 28) was “(16.7%)” and the “Subjects with abnormal findings on physical examination: Gastrointestinal (%)” value ([1]; Day 28) was “(41.7%)”. For the same compound, the “Subjects with abnormal findings on physical examination: Genitourinary (%)” value ([1]; Day 28) was “(16.7%)”, the “Subjects with abnormal findings on physical examination: Musculoskeletal (%)” value ([1]; Day 28) was “(50.0%)” and the “Subjects with abnormal findings on physical examination: Nose and throat (%)” value ([1]; Day 28) was “(41.7%)”. For the same compound, the “Subjects with abnormal findings on physical examination: Other (%)” value ([1]; Day 28) was “(41.7%)”, the “Subjects with abnormal findings on physical examination: Respiratory (%)” value ([1]; Day 28) was “(8.3%)” and the “Subjects with abnormal findings on physical examination: Skin (%)” value ([1]; Day 28) was “(75.0%)”.
